Experimental data as given in publication PMC7419507, “In vitro Cas9-assisted editing of modular polyketide synthase genes to produce desired natural product derivatives” (Nature Communications, 2020).
“And” between values parts separate entries of the source, which are not always exact repeats. Identical values can stand only once.

How the values were obtained:
Assay type in all cases: cell-based
[1] = tested on: human ovarian adenocarcinoma SKOV-3 cells; assay: Cytotoxicity assay (CellTiter-Glo, 72 h), SKOV-3; details: raw replicate data
In short: (§1)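 Following 4 h attachment at 1000 cells/well, the three lines received serially halved compound doses (DMSO 0.5%) for 72 h at 37 °C under 5% CO2, with cell viability then determined by CellTiter-Glo.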

[2] = Cytotoxicity assay (CellTiter-Glo, 72 h), MESO-1; details: human, MESO-1 malignant pleural mesothelioma cells, raw replicate data, read-out: MESO1 viability (%)
In short: as §1

[3] = tested on: malignant pleural mesothelioma MESO-1 cells; assay: Cytotoxicity assay (CellTiter-Glo, 72 h), MESO-1; details: raw replicate data
In short: as §1

[4] = tested on: Jurkat, SKOV-3 and MESO-1 cells; assay: Cytotoxicity assay, statements for all tested cell lines together; details: Jurkat, SKOV-3 and MESO-1 cells, 72 h
In short: as §1

CO[C@@H]1/C=C/C=C/[C@@H](C)C[C@@H](C)C(=O)C[C@H](O)/C(C)=C/[C@@H](C)C(=O)C[C@@H]([C@H](C)C[C@@H]2CC[C@@H](O)[C@H](OC)C2)OC(=O)[C@@H]2CCCCN2C(=O)C(=O)[C@]2(O)O[C@@H](CC[C@H]2C)C1 [Compound 9]
SKOV3 viability (%) ([1]; conc 9.53674e-5 uM): 105.9% and 100.3% | SKOV3 viability (%) ([1]; conc 0.000190735 uM): 101.8% and 104.0% | SKOV3 viability (%) ([1]; conc 0.00038147 uM): 103.8% | SKOV3 viability (%) ([1]; conc 0.000762939 uM): 99.7% and 104.2% | SKOV3 viability (%) ([1]; conc 0.00152588 uM): 108.5% and 105.8% | SKOV3 viability (%) ([1]; conc 0.00305176 uM): 98.1% | SKOV3 viability (%) ([1]; conc 0.00610352 uM): 101.6% and 106.7% | SKOV3 viability (%) ([1]; conc 0.012207 uM): 93.5% and 95.1% | SKOV3 viability (%) ([1]; conc 0.0244141 uM): 95.8% and 102.2% | SKOV3 viability (%) ([1]; conc 0.0488281 uM): 93.6% and 92.4% | SKOV3 viability (%) ([1]; conc 0.0976562 uM): 93.2% and 87.5% | SKOV3 viability (%) ([1]; conc 0.195312 uM): 79.8% and 81.0% | SKOV3 viability (%) ([1]; conc 0.390625 uM): 82.0% and 78.5% | SKOV3 viability (%) ([1]; conc 0.78125 uM): 67.6% and 71.1% | SKOV3 viability (%) ([1]; conc 1.5625 uM): 76.5% and 72.9% | SKOV3 viability (%) ([1]; conc 3.125 uM): 73.0% and 75.2% | SKOV3 viability (%) ([1]; conc 6.25 uM): 70.8% and 73.4% | SKOV3 viability (%) ([1]; conc 12.5 uM): 62.7% and 63.5% | SKOV3 viability (%) ([1]; conc 25 uM): 72.9% | SKOV3 viability (%) ([1]; conc 50 uM): 57.2% and 56.0% | viability at 72 h, 9.53674e-05 uM ([2]; conc 9.53674e-5 uM): 101% | viability at 72 h, 0.000190735 uM ([2]; conc 0.000190735 uM): 93.5% | viability at 72 h, 0.00038147 uM ([2]; conc 0.00038147 uM): 95% | viability at 72 h, 0.000762939 uM ([2]; conc 0.000762939 uM): 93.4% | viability at 72 h, 0.00152588 uM ([2]; conc 0.00152588 uM): 100% | viability at 72 h, 0.00305176 uM ([2]; conc 0.00305176 uM): 92.4% | viability at 72 h, 0.00610352 uM ([2]; conc 0.00610352 uM): 95.6% | viability at 72 h, 0.012207 uM ([2]; conc 0.012207 uM): 89.8% | viability at 72 h, 0.0244141 uM ([2]; conc 0.0244141 uM): 91% | viability at 72 h, 0.0488281 uM ([2]; conc 0.0488281 uM): 82.4% | viability at 72 h, 0.0976562 uM ([2]; conc 0.0976562 uM): 85.7% | viability at 72 h, 0.195312 uM ([2]; conc 0.195312 uM): 74.8% | viability at 72 h, 0.390625 uM ([2]; conc 0.390625 uM): 75.8% | viability at 72 h, 0.78125 uM ([2]; conc 0.78125 uM): 66.3% | viability at 72 h, 1.5625 uM ([2]; conc 1.5625 uM): 71.8% | viability at 72 h, 3.125 uM ([2]; conc 3.125 uM): 65.2% | viability at 72 h, 6.25 uM ([2]; conc 6.25 uM): 69.4% | viability at 72 h, 12.5 uM ([2]; conc 12.5 uM): 63.3% | viability at 72 h, 25 uM ([2]; conc 25 uM): 63.9% | viability at 72 h, 50 uM ([2]; conc 50 uM): 53% | MESO1 viability (%) ([3]; conc 9.53674e-5 uM): 98.3% and 100.4% | MESO1 viability (%) ([3]; conc 0.000190735 uM): 90.7% and 98.1% | MESO1 viability (%) ([3]; conc 0.00038147 uM): 97.4% and 97.9% | MESO1 viability (%) ([3]; conc 0.000762939 uM): 94.8% and 94.3% | MESO1 viability (%) ([3]; conc 0.00152588 uM): 99.1% and 102.8% | MESO1 viability (%) ([3]; conc 0.00305176 uM): 92.2% and 94.8% | MESO1 viability (%) ([3]; conc 0.00610352 uM): 96.7% and 92.3% | MESO1 viability (%) ([3]; conc 0.012207 uM): 91.8% | MESO1 viability (%) ([3]; conc 0.0244141 uM): 99.0% and 94.1% | MESO1 viability (%) ([3]; conc 0.0488281 uM): 84.2% and 90.6% | MESO1 viability (%) ([3]; conc 0.0976562 uM): 83.8% and 83.9% | MESO1 viability (%) ([3]; conc 0.195312 uM): 74.7% and 76.1% | MESO1 viability (%) ([3]; conc 0.390625 uM): 72.2% and 72.1% | MESO1 viability (%) ([3]; conc 0.78125 uM): 64.8% and 71.9% | MESO1 viability (%) ([3]; conc 1.5625 uM): 69.3% and 70.3% | MESO1 viability (%) ([3]; conc 3.125 uM): 69.9% | MESO1 viability (%) ([3]; conc 6.25 uM): 70.9% and 68.1% | MESO1 viability (%) ([3]; conc 12.5 uM): 63.1% and 61.3% | MESO1 viability (%) ([3]; conc 25 uM): 65.5% and 63.8% | MESO1 viability (%) ([3]; conc 50 uM): 61.4% and 51.1% | Effect on cell viability, in words [4]: slightly suppressed the cell viabilities
